Assay results: patent US20250052016A1, “ARTIFICIAL TURF COMPRISING ANTIMICROBIAL POLYURETHANE BACKING” (Synthetic Turf Resources (STR), priority 2022, published 2025)

Tests used:
[1] = system: E. coli; settings: added in the polyurethane reaction mixture in amounts of 0.1 wt % to 0.5 wt %
[2] = system: S. aureus; settings: added in the polyurethane reaction mixture in amounts of 0.1 wt % to 0.5 wt %

zinc pyrithione was tested, and the “effectiveness against E. coli” value [1] was “particularly effective” and the “effectiveness against S. aureus” value [2] was “particularly effective”.
